Experimental data: a melting point compilation (Tetko et al.; mined from patent text by program, amines drawn as free bases though some values may be those of a salt)

melting point [°C]	Structure (SMILES)
233 to 235	Oc1ccc2c(c1)CCc1c-2cc2ccc(O)cc2c1C1CCCC1
155	COc1ccc(NC(=N)N2CCCCC2)c(-c2ccccc2)c1
78 to 83	Nc1ccc(OC2=C(Oc3ccc(N)cc3)C(F)(F)C(F)(F)C2(F)F)cc1
140	CC(CC(C)Oc1ccc(-c2ccc(C#N)cc2)cc1)Oc1ccc(-c2ccc(C#N)cc2)cc1 (stereo not drawn)
155 to 157	O=C1OCCC1C1CCc2c1[nH]c1ccccc21 (stereo not drawn)
146 to 147	COc1ccc2c(c1)C(=NO)c1c-2c(N2CCNCC2)nc2ccccc12
229 to 230	CC(C)(C)C(=O)OCOC(=O)c1c2n(c3cc4c(cc3c1=O)OCO4)CCS2
156 to 158	Cc1cc(Cl)ccc1OCC(=O)N1Cc2ccc(C(=O)C(Cl)(Cl)Cl)n2Cc2ccccc21
197 to 203	CC(=O)c1ccc2c(c1)C(C(=O)Nc1cccc(C(=O)Nc3ccccc3)c1)C(=O)N2CC(F)(F)F (stereo not drawn)
300 to 305	CN1CCC(=C2c3ccccc3C=Cc3ccc(C(=O)O)cc32)CC1
121 to 122	CCC(=O)c1cccc(C(N)=O)c1
252 to 254	CCn1ncc2c(NCc3ccccc3)c3ccc(O)cc3nc21
241 to 243	Cc1nc(NC(=O)C2CC2)sc1C(=O)NCc1ccccc1
119 to 121	CC(=O)c1cccc(NC(=O)c2ccc3c(c2)CC(CSCc2ccccc2)O3)c1O (stereo not drawn)
275 to 276	CC(C)(C)c1cc(C(=O)Nc2nc(C(N)=O)c(CCN3CC4CCC(CC4)C3)s2)cc(C(C)(C)C)c1O
159 to 161	CCOC(=O)C1CCN(c2nc(C)nc3c2C(C)C(=O)N3c2c(C)cc(Br)cc2C)CC1 (stereo not drawn)
76 to 78	Oc1ccccc1OCC1NCCS1 (stereo not drawn)
221	O=C1C(=O)c2ccccc2C2=C1SCC1(CCN(C(=O)c3ccc(Cl)c(Cl)c3)CC1)O2
252 to 254	Cc1nsc2ccc(-n3c(=O)c(Cl)c(C(F)(F)F)n(C)c3=O)cc12
177 to 179	CCN(CC)C(=O)c1cnn(C)c1C(=O)Nc1ccn2nc(-c3ccccc3)nc2c1
> 250	COc1ccc2c(Nc3ccc4[nH]ccc4c3)c(C#N)cnc2c1
115 to 116	COc1ccc(Nc2ccccc2C(=O)CS(C)=O)cc1 (stereo not drawn)
110 to 120	CCc1ccc2c(c1)OC1(O)c3cccc([N+](=O)[O-])c3C(=O)C21O (stereo not drawn)
150	Clc1ccccc1-c1c(I)nc2ncnn2c1NC1CCCC1
150 to 152	CC1=C(C(O)(c2ccc(C)cc2)C2SCSCS2)CN(C)O1 (stereo not drawn)

melting point [°C]	Structure (SMILES)
> 212	CC(=O)Nc1nc2cnccc2s1
211 to 213	Nc1nc(N)c(-c2cccc(Cl)c2Cl)c(COc2ccccc2)n1
243 to 248	CC1Oc2ccc(CN3CCN(c4ccc(C(=O)O)cn4)CC3)cc2NC1=O (stereo not drawn)
51 to 52	CSc1ccc(-c2ccccc2)c([N+](=O)[O-])c1
123	COC(=O)C(Cc1ccc(OCCn2ccc3ccc(C(=O)C4CC4)nc32)cc1)OCC(F)(F)F (stereo not drawn)
48 to 49	OC(CCc1nc(CCl)no1)c1ccc(-c2ccccc2)cc1 (stereo not drawn)
220	O=C(Oc1ccc(-c2cc3ccccc3[nH]2)cc1)c1ccccc1
89 to 91	S=C(Cc1ccc2ccccc2c1)N1CCCCC1
196 to 199	Cc1ccc(O)c(-c2ccc(Br)cc2)n1
170 to 171	CCOC(=O)CCCn1c(=O)c2sc(N)nc2n(C)c1=O
65 to 66	CCOC(=O)CCc1nc(-c2cc3ccccc3o2)cs1
148 to 149	Cc1onc(-c2c(F)cccc2Cl)c1-c1csc(N)n1
160 to 165	O=C1COCc2ccccc2N1
128	COc1ccc(CC(C)CC(C(=O)C(CC(C)Cc2ccc(OC)c(OC)c2)N2C(=O)c3ccccc3C2=O)N2C(=O)c3ccccc3C2=O)cc1OC (stereo not drawn)
48 to 51	CCC(C(=O)N(C)C)n1ccc(-c2ccccc2C)n1 (stereo not drawn)
163 to 164	CC(C)(C)C(=O)C(Br)Cc1cccnc1 (stereo not drawn)
164 to 166	O=c1nc(-c2cccc(S(=O)CCc3ccccc3)n2)sc2ccccc12 (stereo not drawn)
131 to 133	C=CS(=O)(=O)NC(=O)Nc1nc(C)cc(C)n1
124	Fc1ccc(Cl)cc1-c1nnn[nH]1
94 to 95	CCSc1cn(C)cc(-c2ccccc2)c1=O
127 to 129	COCCN(C)CC1=Cc2cc(S(N)(=O)=O)sc2S(=O)(=O)N1C
95 to 96	COC(=O)N(C)CCc1ccc(N)c(CS(=O)(=O)c2ccccc2)c1
193 to 200	N#Cc1coc2ccc(Br)cc2c1=O
90 to 92	CCNC(=O)NCCC1CCc2ccc(OC)cc21 (stereo not drawn)
185 to 187	COc1ccccc1-c1cccc2nc(Nc3cc(OC)c(OC)c(OC)c3)oc12

melting point [°C]	Structure (SMILES)
84 to 85	CCCCCCCCCCCCCCCCCCNC(=O)OCC(CN)COC (stereo not drawn)
120 to 122	O=C(CCCCCCNC(=O)c1ccc(C(F)(C(=O)Nc2cccc3cccnc23)C(=O)Nc2cccc3cccnc23)cc1)NO
64 to 67	CCOc1nc(O)nn1CC
243 to 245	N#CSc1cc(Cl)c(Cl)c2sc(NC(=O)Nc3ccc(Br)cc3)nc12
131 to 133	O=[N+]([O-])c1ccc(CO)c(Sc2ccccc2O)c1
199 to 200	Clc1ccc2c(c1)ncc1ncsc12
133 to 135	CCC(CC)c1ccc(Cl)c2nc3n(c12)CCCCN3c1ccc(Cl)cc1
160 to 162	CNC(=N)Nc1nnc(-c2ccccc2C(F)(F)F)s1
105	O=c1cc(-c2cccc(Cl)c2)c2cc(Br)ccc2[nH]1
188 to 190	Nc1nc(NC2CC2c2ccccc2)c2ncn(C3C=CC(CO)C3)c2n1 (stereo not drawn)
130 to 132	Nc1c(CCO)cc(Cl)cc1C(O)c1ccccc1 (stereo not drawn)
124 to 125	CN1CCN(C(=O)/C=C/c2occc(=O)c2OCC(=O)OC(C)(C)C)CC1
160	CC(=O)OC1CSC(Sc2ccccc2C#N)C(OC(C)=O)C1OC(C)=O (stereo not drawn)
56 to 58	CCOC(=O)CCC(=O)[C@H](Cc1ccccc1)NC(=O)OC(C)(C)C
175	CN1C(=O)C(Cc2ccccc2)N(C)C(=O)C1=Cc1c(C#N)ccc(F)c1F (stereo not drawn)
164 to 166	O=C(O)CCCOc1ccc(C23CC4CC(CC(C4)C2)C3)cc1Cl
61 to 62	CCOC(Cc1ccc(OCCN(C)c2nc3ccccc3o2)cc1)c1nc(C)no1 (stereo not drawn)
129	CCCCc1ccc(-c2ccc(CCc3ccc(Cl)cc3)cc2)cc1
215 to 219	COc1cc(C)c(C)[nH]c1=O
55 to 62	CC(C)[C@H](C[C@H](O)[C@H](C)NC(=O)OC(C)(C)C)C(=O)NN
90 to 92	CCOC(=O)C=Cc1ccc([N+](=O)[O-])c(C)c1
223 to 225	CCOC(=O)c1cn(C2CC2)c2c(F)c(F)c(F)c(N)c2c1=O
129 to 130	CCOC(=O)c1c(CN(C)O)nc2sc3c(c2c1-c1ccc(OC)c(OC)c1)CCN(C(=O)c1ccccc1)C3
